In patent US5527820A, “Antibiotics having immunosuppressive activity, delaminomycins and processes for the production of the same” (priority 1992, dated 1996):
Converted amounts (≈) assume the structure as drawn.

What was measured:
[1] = system: spleen cells (T cells activated by Concanavalin A); assay: Inhibitory activity against blastogenesis and proliferation of spleen cells caused by mitogen (Con A); format: cell-based, mouse (CDF1)
[2] = system: nylon wool-passed cells of spleen cells (responder cell; T cells); assay: Inhibitory activity to the mixed lymphocyte culture reaction; format: cell-based, rat (Fischer F344 responder; WKY stimulator)
[3] = system: delayed-type hypersensitivity (DTH); assay: Suppressive effect on delayed-type hypersensitivity (DTH) in mouse, intraperitoneal; format: in vivo, mouse (CDF1); conditions: intraperitoneal once a day, 0-4th day
Excerpt: Suppressive effect of delaminomycins on delayed-type hypersensitivity (DTH) in mouse
CDF1 mice were immunized by intravenously injecting sheep red blood cells (10^5 cells/mouse). On the 4th day after the immunization, sheep red blood cells (10^8 cells/mouse) were subcutaneously injected into the footpad of mice for the elicitation to cause a delayed-type hypersensitivity (DTH). Test compound was intraperitoneally administered to the mice once a day from the 0th day to 4th day after the immunization. On the 5th day after the elicitation the thickness of the mouse footpad was measured to estimate the suppressive effect of the test compound on the DTH response. The suppressive effect of the test compound was evaluated in terms of the inhibition rate (%) as calculated according to the following equation:
(§1) Inhibition rate (%)=100-(T/C×100)
wherein T denotes the thickness of the footpad when administering the test compound, but C denotes the thickness of the footpad when administering no test compound.

[4] = system: delayed-type hypersensitivity (DTH); assay: Suppressive effect on delayed-type hypersensitivity (DTH) in mouse, oral; format: in vivo, mouse (CDF1); conditions: oral once a day, 0~4th day
Protocol: CDF1 mice were immunized by intravenously injecting sheep red blood cells (10^5 cells/mouse). On the 4th day after the immunization, sheep red blood cells (10^8 cells/mouse) were subcutaneously injected into the footpad of mice for the elicitation to cause a delayed-type hypersensitivity. Test compound was orally administered to the mice once a day from the 0 th day to the 4 th day after the immunization. On the 5th day after the elicitation, the thickness of the mouse footpad was measured to estimate the suppressive effect of the test compound on DTH. The suppressive effect of the test compound was evaluated in terms of the inhibition rate (%) as calculated according to the following equation:
as §1
wherein T denotes the thickness of the footpad when the test compound was administered, but C denotes the thickness of the footpad when no test compounnd was administered.

Mouse leukemia L-1210 = assay: Inhibitory activity on proliferation of cancer cells; format: cell-based; conditions: L1210
Mouse leukemia P388D1 = assay: as above; format: cell-based
Mouse leukemia EL-4 = assay: as above; format: cell-based; conditions: EL4
Mouse melanoma B-16 = assay: as above; format: cell-based; conditions: B16
Human Lymphoma Jurkat = assay: as above; format: cell-based
Candida tropicalis F-1 = assay: MIC, agar plate dilution method; format: cell-based; conditions: F1, 27° C., 42 hours, nutrient agar containing glucose
[5] = system: Candida pseudotropicalis F-2; assay: MIC, agar plate dilution method; format: cell-based; conditions: Kluyveromyces marxianus, F2; 27° C., 42 hours, nutrient agar containing glucose
Candida albicans 3147 = assay: MIC, agar plate dilution method; format: cell-based; conditions: 27° C., 42 hours, nutrient agar containing glucose
Candida Yu-1200 = assay: MIC, agar plate dilution method; format: cell-based; conditions: YU1200, 27° C., 42 hours, nutrient agar containing glucose
Candida krusei F-5 = assay: MIC, agar plate dilution method; format: cell-based; conditions: Pichia kudriavzevii, F5; 27° C., 42 hours, nutrient agar containing glucose
[6] = system: Saccharomyces cerevisiae F-7; assay: MIC, agar plate dilution method; format: cell-based; conditions: F7, 27° C., 42 hours, nutrient agar containing glucose
[7] = system: Cryptococcus neoformans F-10; assay: MIC, agar plate dilution method; format: cell-based; conditions: F10, 27° C., 42 hours, nutrient agar containing glucose
Cochliobolus miyabeanus = assay: MIC, agar plate dilution method; format: cell-based; conditions: Bipolaris oryzae; 27° C., 42 hours, nutrient agar containing glucose
Protocol: (§2) Delaminomycins A, B, C, A2, B2 and C2 according to this invention further have an antibacterial activity against a variety of bacteria. The minimum growth inhibitory concentrations (MIC) (μg/ml) of the novel antibiotics of this invention on various bacteria and fungi as measured by the agar plate dilution method are shown in Table 5a, Table 5b, Table 5c and Table 5d below.
(§3) Evaluated after culturing at 27° C. for 42 hours in nutrient agar
(§4) medium containing glucose.

Xanthomonas citri = assay: MIC, agar plate dilution method; format: cell-based; conditions: 27° C., 42 hours, nutrient agar containing glucose
Protocol: as §2, §3, §4

Piricularia oryzae = assay: microbe, parasite or virus in culture; format: cell-based; conditions: 42 h
Pellicularia sasakii = assay: MIC, agar plate dilution method; format: cell-based; conditions: 27° C., 42 hours, nutrient agar containing glucose
Aspergillus niger F-16 = assay: MIC, agar plate dilution method; format: cell-based; conditions: F16, 27° C., 42 hours, nutrient agar containing glucose
[8] = system: Trichophyton asteroides 429; assay: MIC, agar plate dilution method; format: cell-based; conditions: 27° C., 42 hours, nutrient agar containing glucose
[9] = system: Trichophyton mentagrophytes F-15 (833); assay: MIC, agar plate dilution method; format: cell-based; conditions: 27° C., 42 hours, nutrient agar containing glucose
Gram-positive bacteria = assay: Antibacterial activity to Gram-positive bacteria; format: cell-based; conditions: result in words
Excerpt: as §2

[10] = in vivo

CCC(O)C(C)/C=C/C=C/C1CC2C=CC3CC(C)CC(C)C3C2(C)C(=O)C12C(=O)NC(O)C2=O (stereo not drawn) [Delaminomycin A2]
IC50 ([1]; Mus musculus, T-cell, read-out: IC50 (inhibition of blastogenesis and proliferation of spleen lymphocyte caused by Con A)): 0.78 µg/mL (≈ 1.61 µM) | inhibition at 0.2 µg/mL ([1]; Mus musculus, T-cell, 0.20 μg/ml test compound, read-out: Inhibition rate): 1.5% | inhibition at 0.78 µg/mL ([1]; Mus musculus, T-cell, 0.78 μg/ml test compound, read-out: Inhibition rate): 50.5% | inhibition at 3.1 µg/mL ([1]; Mus musculus, T-cell, 3.1 μg/ml test compound, read-out: Inhibition rate): 76.3% | inhibition at 12.5 µg/mL ([1]; Mus musculus, T-cell, 12.5 μg/ml test compound, read-out: Inhibition rate): 95.1% | inhibition at 50 µg/mL ([1]; Mus musculus, T-cell, 50 μg/ml test compound, read-out: Inhibition rate): 96.5% | activity inhibitory to the reaction of proliferation of mouse spleen cells activated with Concanavalin A ([1]; in vitro, result in words): exhibit an activity inhibitory to the reaction of proliferation of mouse spleen cells | inhibition at 0.1 µg/mL ([2]; Rattus norvegicus, T-cell, 0.10 μg/ml test compound, read-out: Inhibition rate): 16% | inhibition at 0.39 µg/mL ([2]; Rattus norvegicus, T-cell, 0.39 μg/ml test compound, read-out: Inhibition rate): 5% | inhibition at 1.56 µg/mL ([2]; Rattus norvegicus, T-cell, 1.56 μg/ml test compound, read-out: Inhibition rate): 0% | inhibition at 25 µg/mL ([2]; Rattus norvegicus, T-cell, 25 μg/ml test compound, read-out: Inhibition rate): 94% | inhibition at 100 µg/mL ([2]; Rattus norvegicus, T-cell, 100 μg/ml test compound, read-out: Inhibition rate): 56% | IC50 ([2]; Rattus norvegicus, T-cell, 120 hours, 3H-thymidine incorporation, read-out: IC50 (inhibition of mixed lymphocyte culture reaction)): 13.9 µg/mL (≈ 28.7 µM) | activity to inhibit the proliferation of the T cells (responder cell) in mixed lymphocyte culture reaction ([2]; in vitro, result in words): have an activity to inhibit the reaction of proliferation of the T cells | Inhibition rate (DTH footpad thickness) ([3]; 15.6 μg/mouse): 1.9% | Inhibition rate (DTH footpad thickness) ([3]; 62.5 μg/mouse): 3.5% | Inhibition rate (DTH footpad thickness) ([3]; 250 μg/mouse): 26.6% | Inhibition rate (DTH footpad thickness) ([3]; 1000 μg/mouse): 99.3% | Inhibition rate (DTH footpad thickness) ([4]; 0.5 mg/mouse): 7.7% | Inhibition rate (DTH footpad thickness) ([4]; 2.0 mg/mouse): 23.4% | Inhibition rate (DTH footpad thickness) ([4]; 8.0 mg/mouse): 36.1% | IC50 (Mouse leukemia L-1210): 3.7 µg/mL (≈ 7.65 µM) | IC50 (Mouse leukemia P388D1): 10 µg/mL (≈ 20.7 µM) | IC50 (Mouse leukemia EL-4): 4.1 µg/mL (≈ 8.48 µM) | IC50 (Mouse melanoma B-16): 8.3 µg/mL (≈ 17.2 µM) | IC50 (Human Lymphoma Jurkat): 5.9 µg/mL (≈ 12.2 µM) | MIC (Candida tropicalis F-1): > 100 µg/mL | MIC [5]: > 100 µg/mL | MIC (Candida albicans 3147): > 100 µg/mL | MIC (Candida Yu-1200): > 100 µg/mL | MIC (Candida krusei F-5): > 100 µg/mL | MIC [6]: > 100 µg/mL | MIC [7]: > 100 µg/mL | MIC (Cochliobolus miyabeanus): > 100 µg/mL | MIC (Xanthomonas citri): > 100 µg/mL | MIC (Piricularia oryzae): > 100 µg/mL | MIC (Pellicularia sasakii): > 50 µg/mL | MIC (Aspergillus niger F-16): > 100 µg/mL | MIC [8]: > 100 µg/mL | MIC [9]: > 100 µg/mL | antibacterial activity to Gram-positive bacteria (Gram-positive bacteria): antibacterial activity to Gram-positive bacteria | absorption into the digestive tracts / oral absorption [10]: hardly absorbed into the digestive tracts
